How the values were obtained:
Test in all cases: PDSP off-target binding screen
Conditions in all cases: for inhibition at 10 µM: read-out: Primary screen AVE(%inhib)±SD; for Ki: read-out: Secondary screen Ki
5-HT1B = biological target: T1, 5-HT1B (Homo sapiens, UniProt P28222)
T1 construct: NIMH Psychoactive Drug Screening Program (UNC)
Source text: (§1) PDSP no. Compound Interactions (Ki, µM)
(§2) 60477 Allopole-A None observed.
(§3) trigger a secondary screen at that receptor.

5-HT1D = biological target: T2, 5-HT1D (Homo sapiens, UniProt P28221)
T2 construct: NIMH Psychoactive Drug Screening Program (UNC)
Source text: as §1, §2, §3

Alpha1A = biological target: T3, Alpha1A (Homo sapiens, UniProt P35348)
T3 sequence (P35348 1-466): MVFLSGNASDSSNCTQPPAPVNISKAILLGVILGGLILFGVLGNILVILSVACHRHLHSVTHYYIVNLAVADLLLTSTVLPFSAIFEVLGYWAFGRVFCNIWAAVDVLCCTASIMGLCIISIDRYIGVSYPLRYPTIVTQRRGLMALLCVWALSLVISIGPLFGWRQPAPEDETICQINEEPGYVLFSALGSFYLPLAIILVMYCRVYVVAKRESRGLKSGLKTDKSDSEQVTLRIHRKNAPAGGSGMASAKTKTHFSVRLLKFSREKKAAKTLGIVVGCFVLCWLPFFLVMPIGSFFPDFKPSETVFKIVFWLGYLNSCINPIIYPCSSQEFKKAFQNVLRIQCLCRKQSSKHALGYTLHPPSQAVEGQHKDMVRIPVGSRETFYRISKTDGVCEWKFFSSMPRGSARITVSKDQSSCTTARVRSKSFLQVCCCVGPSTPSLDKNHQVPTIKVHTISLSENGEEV
Source text: as §1, §2, §3

Alpha2C = biological target: T4, Alpha2C (Homo sapiens, UniProt P18825)
T4 sequence (P18825 1-462): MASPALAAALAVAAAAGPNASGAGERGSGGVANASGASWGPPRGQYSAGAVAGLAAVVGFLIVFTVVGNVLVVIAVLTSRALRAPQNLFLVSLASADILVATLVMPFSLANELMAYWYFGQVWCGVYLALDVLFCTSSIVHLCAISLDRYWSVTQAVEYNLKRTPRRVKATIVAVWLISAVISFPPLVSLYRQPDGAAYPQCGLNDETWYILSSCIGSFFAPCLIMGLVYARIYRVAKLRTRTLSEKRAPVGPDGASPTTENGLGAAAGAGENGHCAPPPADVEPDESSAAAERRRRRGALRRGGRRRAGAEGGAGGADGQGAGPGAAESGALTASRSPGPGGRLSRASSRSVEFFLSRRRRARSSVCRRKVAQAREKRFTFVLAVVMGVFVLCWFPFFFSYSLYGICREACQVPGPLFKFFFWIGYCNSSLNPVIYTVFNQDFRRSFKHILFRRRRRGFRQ
Source text: as §1, §2, §3

Beta2 = Beta2 (Homo sapiens, UniProt P07550)
Source text: as §1, §2, §3

D4 = biological target: T5, D4 (Homo sapiens, UniProt P21917)
T5 sequence (P21917 1-419): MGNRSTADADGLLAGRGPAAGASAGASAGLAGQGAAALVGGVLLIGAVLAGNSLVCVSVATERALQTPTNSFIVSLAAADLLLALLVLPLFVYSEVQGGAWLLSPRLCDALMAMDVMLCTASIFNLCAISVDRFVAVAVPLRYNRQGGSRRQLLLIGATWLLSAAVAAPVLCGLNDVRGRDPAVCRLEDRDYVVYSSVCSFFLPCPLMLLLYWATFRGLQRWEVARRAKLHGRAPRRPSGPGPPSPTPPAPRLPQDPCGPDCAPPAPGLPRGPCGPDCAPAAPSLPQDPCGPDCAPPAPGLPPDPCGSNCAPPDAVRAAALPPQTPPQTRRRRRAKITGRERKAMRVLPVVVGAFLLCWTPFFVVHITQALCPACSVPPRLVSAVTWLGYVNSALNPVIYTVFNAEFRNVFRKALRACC
Source text: as §1, §2, §3

DOR = DOR (Homo sapiens, UniProt P41143)
Source text: as §1, §2, §3

M4 = biological target: T6, M4 (Homo sapiens, UniProt P08173)
T6 sequence (P08173 1-479): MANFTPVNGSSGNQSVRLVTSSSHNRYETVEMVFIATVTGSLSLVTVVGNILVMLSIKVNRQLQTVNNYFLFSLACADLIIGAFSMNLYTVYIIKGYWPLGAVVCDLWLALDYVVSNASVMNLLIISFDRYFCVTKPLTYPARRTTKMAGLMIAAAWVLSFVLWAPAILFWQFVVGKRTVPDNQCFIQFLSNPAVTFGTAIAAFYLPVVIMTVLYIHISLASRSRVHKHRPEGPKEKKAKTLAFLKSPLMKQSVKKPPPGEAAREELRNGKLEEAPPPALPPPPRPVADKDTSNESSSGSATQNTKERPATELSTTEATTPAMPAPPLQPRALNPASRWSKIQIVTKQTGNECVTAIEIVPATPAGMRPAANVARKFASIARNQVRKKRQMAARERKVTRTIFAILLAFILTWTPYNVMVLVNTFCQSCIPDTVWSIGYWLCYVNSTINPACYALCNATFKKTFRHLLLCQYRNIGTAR
Source text: as §1, §2, §3

MOR = MOR (Homo sapiens, UniProt P35372)
Source text: as §1, §2, §3

Sigma 1 = Sigma 1 (Homo sapiens, UniProt Q99720)
Source text: as §1, §2, §3

Sigma 2 = Sigma 2 (Homo sapiens, UniProt Q5BJF2)
Source text: as §1, §2, §3

Beta2, sequence (P07550 whole entry): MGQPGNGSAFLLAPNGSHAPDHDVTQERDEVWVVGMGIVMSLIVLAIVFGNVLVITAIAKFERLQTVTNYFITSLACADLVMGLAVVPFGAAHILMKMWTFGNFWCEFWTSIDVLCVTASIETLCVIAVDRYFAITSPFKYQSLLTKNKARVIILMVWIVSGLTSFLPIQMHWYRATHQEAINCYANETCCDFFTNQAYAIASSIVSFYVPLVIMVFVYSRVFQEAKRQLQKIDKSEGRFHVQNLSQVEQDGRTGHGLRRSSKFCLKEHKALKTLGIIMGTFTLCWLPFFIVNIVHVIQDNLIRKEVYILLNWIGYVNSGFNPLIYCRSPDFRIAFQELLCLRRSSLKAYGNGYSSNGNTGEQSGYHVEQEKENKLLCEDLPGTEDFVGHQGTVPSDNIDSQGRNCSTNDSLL
MOR, sequence (P35372 whole entry): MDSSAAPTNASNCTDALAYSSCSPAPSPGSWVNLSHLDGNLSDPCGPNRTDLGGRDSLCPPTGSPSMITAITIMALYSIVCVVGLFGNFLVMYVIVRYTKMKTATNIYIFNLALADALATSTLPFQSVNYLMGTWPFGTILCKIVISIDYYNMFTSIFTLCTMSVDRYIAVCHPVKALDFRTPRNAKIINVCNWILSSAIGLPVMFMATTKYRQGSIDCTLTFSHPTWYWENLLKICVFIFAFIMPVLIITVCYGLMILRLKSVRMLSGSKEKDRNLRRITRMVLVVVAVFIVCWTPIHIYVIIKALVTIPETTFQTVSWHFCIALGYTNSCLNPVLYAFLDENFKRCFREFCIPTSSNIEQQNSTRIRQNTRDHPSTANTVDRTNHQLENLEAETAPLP
Sigma 1, sequence (Q99720 whole entry): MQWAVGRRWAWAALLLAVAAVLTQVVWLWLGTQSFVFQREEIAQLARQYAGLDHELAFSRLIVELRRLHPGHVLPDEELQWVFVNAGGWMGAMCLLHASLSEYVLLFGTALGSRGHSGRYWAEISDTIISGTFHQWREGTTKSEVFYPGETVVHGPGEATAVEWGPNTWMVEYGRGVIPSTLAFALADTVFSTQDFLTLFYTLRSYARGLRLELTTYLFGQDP
T1 sequence (P28222 whole entry): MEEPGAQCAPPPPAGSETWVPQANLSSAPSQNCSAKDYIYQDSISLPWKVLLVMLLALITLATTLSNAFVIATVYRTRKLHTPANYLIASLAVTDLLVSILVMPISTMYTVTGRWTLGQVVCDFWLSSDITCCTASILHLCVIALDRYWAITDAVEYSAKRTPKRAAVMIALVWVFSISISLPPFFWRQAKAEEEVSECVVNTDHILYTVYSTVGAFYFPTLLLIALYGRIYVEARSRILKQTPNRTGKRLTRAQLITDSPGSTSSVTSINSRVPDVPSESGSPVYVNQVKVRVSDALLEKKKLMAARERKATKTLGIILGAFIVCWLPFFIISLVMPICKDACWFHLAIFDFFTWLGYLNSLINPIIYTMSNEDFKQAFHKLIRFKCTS
Sigma 2, sequence (Q5BJF2 whole entry): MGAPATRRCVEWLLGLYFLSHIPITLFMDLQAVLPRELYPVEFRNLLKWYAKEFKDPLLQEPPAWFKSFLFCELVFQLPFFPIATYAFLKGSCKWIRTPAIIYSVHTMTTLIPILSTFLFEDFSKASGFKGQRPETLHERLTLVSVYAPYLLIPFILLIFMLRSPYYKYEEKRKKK
T2 sequence (P28221 whole entry): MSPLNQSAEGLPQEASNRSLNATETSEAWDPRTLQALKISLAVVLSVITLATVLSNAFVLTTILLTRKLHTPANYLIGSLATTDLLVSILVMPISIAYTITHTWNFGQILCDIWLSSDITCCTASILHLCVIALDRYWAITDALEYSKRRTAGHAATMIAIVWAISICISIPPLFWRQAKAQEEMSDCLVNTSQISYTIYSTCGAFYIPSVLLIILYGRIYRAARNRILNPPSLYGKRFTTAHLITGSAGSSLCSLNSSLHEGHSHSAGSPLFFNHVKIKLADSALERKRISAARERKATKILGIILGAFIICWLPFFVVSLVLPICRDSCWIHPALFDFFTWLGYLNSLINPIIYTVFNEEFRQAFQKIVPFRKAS
DOR, sequence (P41143 whole entry): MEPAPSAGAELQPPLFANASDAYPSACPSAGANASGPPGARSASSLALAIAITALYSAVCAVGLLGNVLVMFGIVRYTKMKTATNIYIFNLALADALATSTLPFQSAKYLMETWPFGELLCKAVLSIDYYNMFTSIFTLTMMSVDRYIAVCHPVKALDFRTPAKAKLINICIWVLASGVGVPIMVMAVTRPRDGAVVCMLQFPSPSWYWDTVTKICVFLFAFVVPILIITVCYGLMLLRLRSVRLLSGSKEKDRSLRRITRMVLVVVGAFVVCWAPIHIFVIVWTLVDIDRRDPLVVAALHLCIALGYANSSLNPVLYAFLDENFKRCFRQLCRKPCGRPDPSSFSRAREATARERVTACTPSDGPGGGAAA

## Cn1cnc([N+](=O)[O-])c1Sc1nnc2n(CC3CC3)c(=O)c3sc(Cl)cc3n12 [Allopole]
5-HT1B
  inhibition at 10 µM: 60.8 ± 40.9%
  Ki: > 10 µM
5-HT1D
  inhibition at 10 µM: 32.8 ± 27.1%
  Ki: > 10 µM
Alpha1A
  inhibition at 10 µM: 40.6 ± 10.5%
  Ki: > 10 µM
Alpha2C
  inhibition at 10 µM: 6.4 ± 7.5%
  Ki: > 10 µM
Beta2
  inhibition at 10 µM: 0.1 ± 10.6%
  Ki: > 10 µM
D4
  inhibition at 10 µM: 12.6 ± 4.9%
  Ki: > 10 µM
DOR
  inhibition at 10 µM: -1 ± 4.8%
  Ki: > 10 µM
M4
  inhibition at 10 µM: -8.7 ± 9.5%
  Ki: > 10 µM
MOR
  inhibition at 10 µM: 40.6 ± 51%
  Ki: > 10 µM
Sigma 1
  inhibition at 10 µM: 41.8 ± 11.9%
  Ki: > 10 µM
Sigma 2
  inhibition at 10 µM: 40.7 ± 5.8%
  Ki: > 10 µM

## O=c1c2sc(Cl)cc2n2c(=S)[nH]nc2n1CC1CC1 [Allopole-A]
5-HT1B
  inhibition at 10 µM: 17.7 ± 42.2%
  Ki: > 10 µM
5-HT1D
  inhibition at 10 µM: 22.5 ± 25.6%
  Ki: > 10 µM
Alpha1A
  inhibition at 10 µM: -9.4 ± 18%
  Ki: > 10 µM
Alpha2C
  inhibition at 10 µM: 10.6 ± 4.2%
  Ki: > 10 µM
Beta2
  inhibition at 10 µM: -2.1 ± 19.7%
  Ki: > 10 µM
D4
  inhibition at 10 µM: -24.3 ± 4.4%
  Ki: > 10 µM
DOR
  inhibition at 10 µM: -13.5 ± 6.8%
  Ki: > 10 µM
M4
  inhibition at 10 µM: -8.8 ± 4.8%
  Ki: > 10 µM
MOR
  inhibition at 10 µM: 30.8 ± 47.5%
  Ki: > 10 µM
Sigma 1
  inhibition at 10 µM: 2 ± 21.4%
  Ki: > 10 µM
Sigma 2
  inhibition at 10 µM: 40.6 ± 9.5%
  Ki: > 10 µM
